Measurements published in US20080288176A1 (priority 2005, published 2008).

Legend:
Hydrolysis in rat plasma = assay type: in vitro ADME; settings: for Hydrolysis of the NO-AA in rat plasma (in words) / NO-AA half-life in plasma: NO-AA formed from the prodrug
Excerpt: (§1) The physiologically based pharmacokinetic/pharmacodynamic model of the present invention contains a series of compartments that describe the time course of a nonsteroidal anti-inflammatory prodrug, its active metabolites and nitric oxide release in intestine, liver, kidneys, blood/plasma and heart after prodrug administration. The time course of the prodrug, its active metabolites and nitric oxide release can be simulated using a series of in vitro and in silico inputs. The stability of each component in the gastrointestinal lumen is estimated using data collected from artificial gastric and intestinal juice. Intestinal metabolism is estimated using intestinal microsomes and absorption rate is estimated using permeability data collected from a cell monolayer such as Caco-2. Hepatic elimination is estimated using liver microsomes and stability in plasma is calculated using degradation of each component in the media. Plasma protein binding can either be measured using a standardized in vitro method or it can be estimated using an in silico method. The distribution of each component in various parts of the body is estimated using an in silico method. The rate of nitric oxide release is estimated using an in vitro endothelial cell model. The time course of prodrug, its active metabolites and nitric oxide can be simulated in human and animal using this physiologically based pharmacokinetic/pharmacodynamic model provided that the corresponding in vitro and in silico data are used as inputs.
(§2) Representative in vitro tests or in silico estimates include: (a) pKa estimation or measurement; (b) Log P measurement or in silico estimation; (c) Solubility in various physiological fluids; (d) Permeability. Caco-2 and/or NOVOKIN's proprietary animal and human cell lines can be used to obtain this parameter; (e) Metabolic rate in the intestine and liver. Human or animal intestinal microsomes, S9 fraction, and cytosol can be used for this purpose. Human or animal hepatocytes, liver microsomes, S9 fraction, and cytosol can also be used; (f) Hydrolysis in human or animal plasma; (g) Serum or plasma protein binding. It can be measured in vitro or estimated in silico; (h) The rate of NO release; (i) Existing pharmacokinetic and pharmacodynamic data of NSAID or a biocompatible agent; (j) Existing NO release rate of known diazeniumdiolate if applicable; (k) Stability in gastric and intestinal environment; and (l) In silico volume of distribution estimation.

[1] = Hydrolysis in various enzymatic preparations (rat and human intestinal and liver microsomes); settings: for Stability of the NO-AA formed (in words): intestinal and liver microsomes of human and rats; for Initial loss of the prodrug candidate (in words): various enzymatic preparations
[2] = Hydrolysis in human intestinal microsomes; assay type: in vitro ADME; settings: for intestinal microsomal activity: model input
Excerpt: as §1
The selection of in vitro tests is designed to provide parameters for the above mentioned model. The use of an inappropriate test would result in wrong predictions. For example, Knaus et al. (2005) used guinea pig serum and porcine esterases to hydrolyze their O^2-substituted diazeniumdiolate derivatives of ASPIRIN, as disclosed in U.S. Ser. No. 60/681,842. These tests provided very little information in terms of in vivo human NO-NSAID metabolism rate and the extent to which metabolic conversion to NO donor and NSAID occurred. […] The half-life values were less than one minute. Based on these observations, it has become apparent that prior to entering the systemic circulation, it is likely that the NO-NSAID would have been hydrolyzed in the enterocytes and little or no NO-NSAID would have been detected in the blood stream. Furthermore, the release of NO will commence immediately once the NO donor is detached from the NSAID.
as §2
(§3) Whenever in vitro estimate is attainable, the in vitro results will be used, for example, plasma protein binding. Methods reported by Bowalgaha & Miners (2001), Martignoni et al. (2006), Tong et al. (2001) and Thulesen et al. (1999) were used for in vitro and in vivo scale-up for clearance in the intestine, absorption rate constant and hepatic clearance. The simulation begins with no material in all compartments except for the initial bolus in one compartment (typically the stomach compartment). The simulation then estimates the changing distribution of the material with time.

[3] = Hydrolysis in rat liver microsomes; assay type: in vitro ADME; settings: for liver microsomal activity: model input
Excerpt: as §1, §2, §3

[4] = Hydrolysis in human liver microsomes; assay type: in vitro ADME; settings: for liver microsomal activity: model input
Excerpt: as §1, with “The” for “The physiologically based pharmacokinetic/pharmacodynamic model of the present invention contains a series of compartments that describe the time course of a nonsteroidal anti-inflammatory prodrug, its active metabolites and nitric oxide release in intestine, liver, kidneys, blood/plasma and heart after prodrug administration. The”
The selection of in vitro tests is designed to provide parameters for the above mentioned model. The use of an inappropriate test would result in wrong predictions.
as §2
The simulation begins with no material in all compartments except for the initial bolus in one compartment (typically the stomach compartment). The simulation then estimates the changing distribution of the material with time.

[5] = Stability in intestinal lumen (decay rate); assay type: in vitro ADME
Excerpt: as §1, §2

[6] = Stability in gastric environment (gastric decay rate); assay type: in vitro ADME
Excerpt: as §1, §2

[7] = Hydrolysis in rat intestinal microsomes; assay type: in vitro ADME; settings: for intestinal microsomal activity: model input
Excerpt: as §1, §2, §3

[8] = Enzymatic hydrolysis in liver microsomal preparations (LC-MS); assay type: in vitro ADME; settings: liver microsomal preparations
Description: (§4) The sensitivity of the prodrug 3 towards enzymatic hydrolysis was evaluated by LC-MS. Liver and intestinal microsomal preparations were used. […] However, these rates were slower than the enzymatic hydrolysis rates determined for the conversion of 1→4 and 2→5 (complete hydrolysis observed in 10 and 30 minutes respectively in liver microsomal preparations).

[9] = Enzymatic hydrolysis in intestinal microsomal preparations (LC-MS); assay type: in vitro ADME; settings: after 2 hours
Description: as §4

[10] = Chemical stability (loss of diazeniumdiolate) in phosphate buffer; assay type: physicochemical
Description: They varied only in the nitrogen substituent of the amino acid, i.e. free amine (1), acetyl (2) and pivaloyl (3) groups. Their chemical stability was evaluated in phosphate buffer at different pH's over a 30 minute period (Table 11).

Row | Compound | Hydrolysis of the NO-AA in rat plasma (in words) (Hydrolysis in rat plasma) | NO-AA half-life in plasma (Hydrolysis in rat plasma; Rat) [min] | Stability of the NO-AA formed (in words) [1] | Initial loss of the prodrug candidate (in words) [1] | intestinal molar percent conversion to Naproxen [2] [%] | intestinal microsomal activity [2] [mL/min/organ] | liver molar percent conversion to Naproxen [3] [%] | liver microsomal activity [3] [mL/min/organ] | liver molar percent conversion to Naproxen [4] [%] | liver microsomal activity [4] [mL/min/organ] | intestinal lumen decay rate constant ([5]; Human) [min⁻¹] | intestinal lumen decay rate constant ([5]; Rat) [min⁻¹] | gastric decay rate constant ([6]; Human) | gastric decay rate constant ([6]; Rat) | intestinal molar percent conversion to Naproxen [7] [%] | intestinal microsomal activity [7] [mL/min/organ] | other results
1 | COc1ccc2cc(C(C)C(=O)OCOC(=O)CCC(NC(=O)C(C)(C)C)C(=O)OCON=[N+]([O-])N(C)C)ccc2c1 (stereo not drawn) [CMD 113] | relatively fast rate | 9.2 | relatively stable | rapid initial loss | 75 | 4813 | 90 | 6545 | 72 | 434763 | 0.2 | 0.2 | 0 /mint | 0 /mint | 62 | 2 | plasma decay rate constant (Hydrolysis in rat plasma; Rat): 1.2 min⁻¹
2 | COc1ccc2cc(C(C)C(=O)OCOC(=O)C(CCC(=O)OCON=[N+]([O-])N(C)C)NC(=O)C(C)(C)C)ccc2c1 (stereo not drawn) [CMD 114] | relatively fast rate | 3.8 | relatively stable | rapid initial loss | 78 | 5006 | 60 | 7667 | 50 | 721224 | 0.67 | 0.67 | 0 /mint | 0 /mint | 42 | 9 | –
3 | COc1ccc2cc(C(C)C(=O)OC3CC(C(=O)OCO/N=[N+](\[O-])N(C)C)N(C(=O)C(C)(C)C)C3)ccc2c1 (stereo not drawn) [Compound 3] | – | – | – | – | – | – | – | – | – | – | – | – | – | – | – | – | Time to complete hydrolysis (cleavage of the diazeniumdiolate) [8]: 2 h; Conversion to NSAID-amino acid (cleavage of the diazeniumdiolate) [9]: 50%; Stability (loss of diazeniumdiolate), pH 2.5 ([10]; 30 min, pH 2.5): ✓; Stability (loss of diazeniumdiolate), pH 5.0 ([10]; 30 min, pH 5.0): ✓; Stability (loss of diazeniumdiolate), pH 7.0 ([10]; 30 min, pH 7.0): ✓; Chemical stability (in words) ([10]; pH range 2.5-7.0, 30 minute period): stable
